The text below walks through data of patent US20120121540A1 (priority 2007, published 2012).

The structures appear in SMILES notation.

A short description of this assay: HCV replicon assay (luciferase reporter, ET cell line). It counts as cell-based. As to conditions: Hepatitis C virus, HCV replicon luciferase activity in ET cells. Summed up:
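EC50 and, via WST-1 cytotoxicity, TC50 were fitted with a Hill-coefficient equation to % inhibition across 10 two-fold dilutions. Compounds at 0.1 nM-[…] with 0.5% DMSO were applied 24 h post-seeding to replicon-bearing ET cells (luc-ubi-neo/NS3-5B, adaptive mutations). Firefly luciferase signal was measured after 48-72 h.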
In general terms: Replicon systems follow genome replication, usually without infectious particles.
Usually inhibition stands for how much of the control response was suppressed. `O=C(c1nc2c(C(F)(F)F)cc(-c3cn[nH]c3)cn2c1-c1cn[nH]c1)N1CCC(c2cccc(F)c2)C1` (stereo not drawn) [Compound 486, [3,6-Bis-(1H-pyrazol-4-yl)-8-trifluoromethyl-imidazo[1,2-a]pyridin-2-yl]-[3-(3-fluoro-phenyl)-pyrrolidin-1-yl]-methanone] registered an inhibition at 10 µM of 65.8%.
As for `O=C(c1nc2c(C(F)(F)F)cc(-c3ccoc3)cn2c1Cl)N1CCC1c1ccccc1` (stereo not drawn) [Compound 487, (3-Chloro-6-furan-3-yl-8-trifluoromethyl-imidazo[1,2-a]pyridin-2-yl)-(2-phenyl-azetidin-1-yl)-methanone], the figure is 94.2%; as for `O=C(c1nc2c(C(F)(F)F)cc(-c3ccoc3)cn2c1Cl)N1CC(c2ccc(C(F)(F)F)cc2)C1` [Compound 488], 60.2%; as for `CC(C)(C)OC(=O)NC1CN(C(=O)c2nc3c(C(F)(F)F)cc(-c4ccoc4)cn3c2Cl)C1` [Compound 489, [1-(3-Chloro-6-furan-3-yl-8-trifluoromethyl-imidazo[1,2-a]pyridine-2-carbonyl)-azetidin-3-yl]-carbamic Acid Tert-butyl Ester], 33%.
`CS(=O)(=O)NC1CN(C(=O)c2nc3c(C(F)(F)F)cc(-c4ccoc4)cn3c2Cl)C1` [Compound 491, N-[1-(3-Chloro-6-furan-3-yl-8-trifluoromethyl-imidazo[1,2-a]pyridine-2-carbonyl)-azetidin-3-yl]-methanesulfonamide] had an inhibition at 10 µM of 92.4%.
The result for `O=C(c1nc2c(C(F)(F)F)cc(-c3ccoc3)cn2c1Cl)N1CC(NS(=O)(=O)c2ccccc2)C1` [Compound 492, N-[1-(3-Chloro-6-furan-3-yl-8-trifluoromethyl-imidazo[1,2-a]pyridine-2-carbonyl)-azetidin-3-yl]-benzenesulfonamide] reads 97.4%; that for `O=C(c1nc2c(C(F)(F)F)cc(-c3ccoc3)cn2c1Cl)N1CC(NS(=O)(=O)Cc2ccccc2)C1` [Compound 493, N-[1-(3-Chloro-6-furan-3-yl-8-trifluoromethyl-imidazo[1,2-a]pyridine-2-carbonyl)-azetidin-3-yl]-C-phenyl-methanesulfonamide], 91.4%.
Take `O=C(c1nc2c(C(F)(F)F)cc(-c3ccoc3)cn2c1Cl)N1CC(NS(=O)(=O)c2ccccc2F)C1` [Compound 494, N-[1-(3-Chloro-6-furan-3-yl-8-trifluoromethyl-imidazo[1,2-a]pyridine-2-carbonyl)-azetidin-3-yl]-2-fluoro-benzenesulfonamide]: 10 µM produced 88.5% inhibition.
For the compound `O=C(c1nc2c(C(F)(F)F)cc(-c3ccoc3)cn2c1Cl)N1CC(NS(=O)(=O)c2cccc(F)c2)C1` [Compound 495, N-[1-(3-Chloro-6-furan-3-yl-8-trifluoromethyl-imidazo[1,2-a]pyridine-2-carbonyl)-azetidin-3-yl]-3-fluoro-benzenesulfonamide], testing at 10 µM gave an inhibition of 94.2%.
The result for `O=C(c1nc2c(C(F)(F)F)cc(-c3ccoc3)cn2c1Cl)N1CC(NS(=O)(=O)c2ccc(F)cc2)C1` [Compound 496, N-[1-(3-Chloro-6-furan-3-yl-8-trifluoromethyl-imidazo[1,2-a]pyridine-2-carbonyl)-azetidin-3-yl]-4-fluoro-benzenesulfonamide] reads 94.3%; that for `CC(C)S(=O)(=O)NC1CN(C(=O)c2nc3c(C(F)(F)F)cc(-c4ccoc4)cn3c2Cl)C1` [Compound 497, Propane-2-sulfonic acid [1-(3-chloro-6-furan-3-yl-8-trifluoromethyl-imidazo[1,2-a]pyridine-2-carbonyl)-azetidin-3-yl]-amide], 97.8%.
`O=C(c1nc2c(C(F)(F)F)cc(-c3ccoc3)cn2c1Cl)N1CC(NS(=O)(=O)C2CC2)C1` [Compound 498, Cyclopropanesulfonic Acid[1-(3-chloro-6-furan-3-yl-8-trifluoromethyl-imidazo[1,2-a]pyridine-2-carbonyl)-azetidin-3-yl]-amide] gave an inhibition at 10 µM of 95%.
The result for `O=C(c1nc2c(C(F)(F)F)cc(-c3ccoc3)cn2c1Cl)N1CC(NS(=O)(=O)c2cccs2)C1` [Compound 499, Thiophene-2-sulfonic acid [1-(3-chloro-6-furan-3-yl-8-trifluoromethyl-imidazo[1,2-a]pyridine-2-carbonyl)-azetidin-3-yl]-amide] reads 93.4%.
The result for `CCS(=O)(=O)NC1CN(C(=O)c2nc3c(C(F)(F)F)cc(-c4ccoc4)cn3c2Cl)C1` [Compound 500, Ethanesulfonic Acid[1-(3-chloro-6-furan-3-yl-8-trifluoromethyl-imidazo[1,2-a]pyridine-2-carbonyl)-azetidin-3-yl]-amide] reads 98%; that for `CN(C)S(=O)(=O)NC1CN(C(=O)c2nc3c(C(F)(F)F)cc(-c4ccoc4)cn3c2Cl)C1` [Compound 504], 98.9%.
The compound `CS(=O)(=O)N1CC(NC(=O)c2nc3c(C(F)(F)F)cc(-c4ccoc4)cn3c2Cl)C1` [Compound 510, 3-Chloro-6-furan-3-yl-8-trifluoromethyl-imidazo[1,2-a]pyridine-2-carboxylic Acid (1-methanesulfonyl-azetidin-3-yl)-amide] displayed an inhibition at 10 µM of 24%.
With `O=C(NC1CN(S(=O)(=O)c2ccccc2)C1)c1nc2c(C(F)(F)F)cc(-c3ccoc3)cn2c1Cl` [Compound 511, 3-Chloro-6-furan-3-yl-8-trifluoromethyl-imidazo[1,2-a]pyridine-2-carboxylic Acid (1-benzenesulfonyl-azetidin-3-yl)-amide], the inhibition at 10 µM is 98.6%.
For the compound `O=C(NC1CN(C(=O)Cc2ccccc2)C1)c1nc2c(C(F)(F)F)cc(-c3ccoc3)cn2c1Cl` [Compound 514, 3-Chloro-6-furan-3-yl-8-trifluoromethyl-imidazo[1,2-a]pyridine-2-carboxylic Acid (1-phenylacetyl-azetidin-3-yl)-amide], the inhibition at 10 µM is 6.6%.
The result for `CS(=O)(=O)NC1CN(C(=O)c2cn3cc(-c4ccoc4)cc(C(F)(F)F)c3n2)C1` [Compound 519, N-[1-(6-Furan-3-yl-8-trifluoromethyl-imidazazo[1,2-a]pyridine-2-carbonyl)-azetidin-3-yl]-methanesulfonamide] reads 84.7%; that for `CS(=O)(=O)NC1CN(C(=O)c2nc3c(C(F)(F)F)cc(-c4cn[nH]c4)cn3c2Cl)C1` [Compound 521, N-{1-[3-Chloro-6-(1H-pyrazol-4-yl)-8-trifluoromethyl-imidazo[1,2-a]pyridine-2-carbonyl]-azetidin-3-yl}-methanesulfonamide], 72.8%.
The result for `CS(=O)(=O)NC1CN(C(=O)c2nc3c(C(F)(F)F)cc(-c4cn[nH]c4)cn3c2Br)C1` [Compound 522, N-{1-[3-Bromo-6-(1H-pyrazol-4-yl)-8-trifluoromethyl-imidazo[1,2-a]pyridine-2-carbonyl]-azetidin-3-yl}-methanesulfonamide] reads 88.6%; that for `O=C(c1nc2c(C(F)(F)F)cc(-c3cc[nH]c3)cn2c1Cl)N1CCC(c2cccc(F)c2)C1` (stereo not drawn) [Compound 524, [3-Chloro-6-(1H-pyrrol-3-yl)-8-trifluoromethyl-imidazo[1,2-a]pyridin-2-yl]-[3-(3-fluoro-phenyl)-pyrrolidin-1-yl]methanone], 91%.
For `O=C(c1nc2c(C(F)(F)F)cc(-c3c[nH]c4ccccc34)cn2c1Cl)N1CCC(c2cccc(F)c2)C1` (stereo not drawn) [Compound 525, [3-Chloro-6-(1H-indol-3-yl)-8-trifluoromethyl-imidazo[1,2-a]pyridin-2-yl]-[3-(3-fluoro-phenyl)-pyrrolidin-1-yl]methanone], 10 µM produced 23.4% inhibition.
The result for `O=C(c1nc2c(C(F)(F)F)cc(-c3ccoc3)cn2c1Cl)N1CCN(c2ccccc2F)CC1` [Compound 529, (3-Chloro-6-furan-3-yl-8-trifluoromethyl-imidazo[1,2-a]pyridine-2-yl)-[4-(2-fluoro-phenyl)-piperazin-1-yl]-methanone] reads 78.9%.
The result for `O=C(c1nc2c(C(F)(F)F)cc(-c3ccoc3)cn2c1Cl)N1CCN(c2ccc(F)cc2)CC1` [Compound 530, (3-Chloro-6-furan-3-yl-8-trifluoromethyl-imidazo[1,2-a]pyridine-2-yl)-[4-(4-fluoro-phenyl)-piperazin-1-yl]-methanone] reads 80.3%; that for `O=C(c1nc2c(C(F)(F)F)cc(-c3ccoc3)cn2c1Cl)N1CCN(c2cccc(F)c2)CC1` [Compound 531, (3-Chloro-6-furan-3-yl-8-trifluoromethyl-imidazo[1,2-a]pyridine-2-yl)-[4-(3-fluoro-phenyl)-piperazin-1-yl]-methanone], 79.3%; that for `O=C(c1nc2c(C(F)(F)F)cc(-c3ccoc3)cn2c1Cl)N1CCN(c2ccccn2)CC1` [Compound 532, (3-Chloro-6-furan-3-yl-8-trifluoromethyl-imidazo[1,2-a]pyridine-2-yl)-[4-pyridin-2-yl-piperazin-1-yl]-methanone], 79.1%.
For `O=C(c1nc2c(C(F)(F)F)cc(-c3ccoc3)cn2c1Cl)N1CCN(c2ccncc2)CC1` [Compound 533, (3-Chloro-6-furan-3-yl-8-trifluoromethyl-imidazo[1,2-a]pyridine-2-yl)-[4-pyridin-4-yl-piperazin-1-yl]-methanone], the inhibition at 10 µM was 23.4%.
As for `O=C(c1nc2c(C(F)(F)F)cc(-c3ccoc3)cn2c1Cl)N1CCN(c2ccccc2)CC1` [Compound 534, (3-Chloro-6-furan-3-yl-8-trifluoromethyl-imidazo[1,2-a]pyridine-2-yl)-(4-phenyl-piperazin-1-yl)-methanone], the figure is 77.6%; as for `O=C(c1nc2c(C(F)(F)F)cc(-c3ccoc3)cn2c1Cl)N1CCC(c2ccccc2)CC1` [Compound 535, (3-Chloro-6-furan-3-yl-8-trifluoromethyl-imidazo[1,2-a]pyridine-2-yl)-(4-phenyl-piperidin-1-yl)-methanone], 86.6%.
